Usually IC50 stands for the concentration needed to halve the response being measured. The term inhibition denotes the percentage by which the read-out fell short of the control.

The structures appear in SMILES notation.

For series [1], the target named is T1, DENV-2 NS3 (full-length, NS3FL) ATPase activity (Dengue virus type 2, UniProt P14340).
T1 construct: The fragment corresponding to amino acids 1 to 619 of NS3FL was amplified; 10xHis (N, cleaved yes); ubiquitin (N, cleaved yes); made in house; host or cells: E. coli Rosetta (λDE3)
T1 sequence (P14340 1476-2093): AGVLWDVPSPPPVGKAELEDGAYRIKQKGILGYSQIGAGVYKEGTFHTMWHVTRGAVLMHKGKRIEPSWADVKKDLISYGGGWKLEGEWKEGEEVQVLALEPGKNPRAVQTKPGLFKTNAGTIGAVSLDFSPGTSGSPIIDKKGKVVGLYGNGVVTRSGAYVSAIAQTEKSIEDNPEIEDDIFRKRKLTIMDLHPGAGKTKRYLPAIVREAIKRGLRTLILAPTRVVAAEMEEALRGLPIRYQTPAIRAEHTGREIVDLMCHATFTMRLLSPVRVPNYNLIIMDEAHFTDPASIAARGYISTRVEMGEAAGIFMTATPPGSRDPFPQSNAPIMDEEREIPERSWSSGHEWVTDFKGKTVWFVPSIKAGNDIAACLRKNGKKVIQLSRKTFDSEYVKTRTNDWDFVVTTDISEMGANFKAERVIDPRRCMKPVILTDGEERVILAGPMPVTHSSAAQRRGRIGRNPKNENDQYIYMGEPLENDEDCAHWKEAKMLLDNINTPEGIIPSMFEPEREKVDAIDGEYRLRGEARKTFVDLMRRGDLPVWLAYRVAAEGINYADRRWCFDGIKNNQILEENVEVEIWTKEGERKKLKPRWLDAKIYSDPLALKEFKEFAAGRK
Put plainly: Colorimetric NTPase (ATPase) assay with purified full-length NS3. Type of series: biochemical. The conditions noted are these: for NS3 ATPase inhibition, statistical difference from control (unpaired t-test, p < 0.05): screening in duplicate; for IC50: compound ≤ 100 μM. The procedure:
The ATPase activity of NS3 was determined by measuring the extension of hydrolysis of NTP to NDP and Pi. The amount of free inorganic phosphate released was calculated by the hydrolysis of ATP using a standard curve with known Pi concentrations, and the reaction was measured at 660 nm using SpectraMax M5 spectrophotometer (Molecular Devices). Compounds were diluted from 20 mM or 40 mM stock solution prepared in 100% DMSO. These compounds were diluted to a final concentration of 10% DMSO in the assay buffer. The compound screening assay was performed in 96-well plate, and in each well reaction containing 600 nM NS3FL, 40 mM Tris-HCl (pH 7.5), 5 mM MgCl2, 5 mM DTT, 0.1M KCl were pre-incubated with 50µM of compounds (or varying concentrations of the compound) for 10 min at 30 °C. The kinetic activity was initiated by the addition of 1 mM of ATP substrate and incubation for 10 min at 30°C. Reactions were stopped with addition of 20 μL 50% TCA, followed by 80 μL of ammonium molibidate solution and 40 μL of reducing agent. Absorbance was read and data were processed on Sigma Plot Version 10.0. The initial reaction velocities (Vi) of product formation were determined from progress curves using the linear regression method and data converted to residual activity and/or calculate IC50% assuming Michelis-Mentem kinetics. The experiments were carried out in duplicate and the statistical difference between the inhibition reaction in the presence of each compound and the control were evaluated by unpaired t-test analysis.
Once the ATPase activity was confirmed after purification process, we used the colorimetric assay developed by Fiske and Subbarow for the screening of compounds, which was performed using 600 nM of NS3FL in reactions containing 40 mM Tris-HCl (pH 7.5), 5 mM DTT, 100 mM KCl, 5 mM MgCl2, and 1 mM ATP and 50 µM of the pyran naphthoquinones 8, 9 and 10. […] The percentage of NS3FL ATPase activity inhibition varied from 15 to 50% of the untreated control.

A further series deals with Vero cells. Kind of series: Cytotoxicity assay, neutral red staining (confirmed with CellTiter Blue). In kind it is cell-based, African Green Monkey. The note with it: for Viability of uninfected host cell cultures: up to 100 µM, 72 h, neutral red. As to the method:
Cell toxicity of all compounds used in this work was tested in Vero and HepG2 cells by Neutral Red dye exclusion assay. Briefly, cells were cultured with varying concentrations of each compound and incubated for 72 hours at 37°C. After this period, the cells were incubated with 0.05% neutral red solution for 3 hours, washed with 1X PBS and fixed with 20% paraformaldehyde for 5 min. Cells were washed again and the incorporated dye was extracted with a 50% methanol and 1% acetic acid solution for 20 min. Plates were read at 490nm in a ELISA reader. Results obtained with the neutral red dye exclusion assay were confirmed using the CellTiter Blue Cell Viability Kit (Promega, Madison - USA) according to manufacturer’s instructions.
The compounds were initially screened regarding their toxicity level after culturing Vero and HepG2 cells with the effective concentration of each compound. After 72h, cellular viability was analyzed by neutral red staining and confirmed by the conversion of redox resazurin into fluorescent resorufin.
(In general: Resazurin is reduced to fluorescent resorufin, in cell work by metabolically active cells.)

Series [2] has as its system DENV-2. Kind of series: Virus replication inhibition assay in Vero cells, cell-free viral RNA by qPCR. The conditions noted are these: for % of Inhibition of DENV-2 Replication (qPCR): DENV-2 infected Vero cells, m.o.i 0.1, 72 h, highest non-toxic concentration (μM, in parentheses after label): 8d 25, 9b and 9c 100, 10a and 10b 12.5, Ribavirin 200; for Inhibition of DENV-2 replication (in words): highest non-toxic concentration; for IC50: qPCR, 100 to 0.4 μM dose response, Hill regression. In kind it is cell-based. The procedure:
In order to test the anti-viral effect of the compounds used in this work, monolayers of Vero cells were inoculated with DENV-2 at an m.o.i of 0.1 for 2 hours. After this period, cells were washed with 1X PBS to remove unbound viruses and fresh media was added with the highest non-cytotoxic concentration of the compounds. Infected cells were also cultured with culture medium or 1% DMSO, as negative controls, or with 200μM of Ribavirin® as reference drug for DENV replication inhibition. After 72 h, culture supernatants were collected and viral RNA was extracted using the QIAamp Viral RNA Mini Kit (Qiagen – Hamburg, Germany), according to manufacturer’s instructions. The synthesis of cDNA was performed with random hexamers as primers and the High Capacity cDNA kit (LifeTechnologies – Carlsbad, USA) according to manufacturer’s instructions. The detection and quantification of the cell free viral genomic RNA was performed by qPCR using specific primers and probe hybridizing in the protein E gene region as already described. qPCR conditions were as follow: a reaction mixture consisting of 12.5μL of TaqMan (Invitrogen – Carlsbad, USA), 50 pmol of each primer, 9 pmol of the probe and 7μL of the cDNA reaction to a final volume of 25μL was submitted to 40 cycles of amplification in a ABI PRISM 7000 Detection System (LifeTechnologies – Carlsbad, USA) using 60°C annealing temperature. Amplification results were analyzed using the 7000 SDS software (LifeTechnologies – Carlsbad, USA) and the threshold parameter was manually adjusted.
The efficiency of the qPCR was calculated based on the slope of a Ct versus Template Concentration curve. To generate the calibration curve, a purified stock of DENV-2 containing 10^5 Plaque forming unities/ml was serially diluted and used to RNA extraction followed by cDNA synthesis, which was in turn used as template for the qPCR. A value of -3.30 was achieved, which represents an efficiency close to 100%. Based on this efficiency for the qPCR, the percentage of inhibition of DENV replication was calculated by the ΔΔCT method.
A dose response curve was also performed with the compounds that inhibited DENV replication by at least 30%. For this purpose, DENV-2-infected Vero cells were cultured with the selected compounds at concentrations varying from 100 to 0.4 μM and virus replication was measured by qPCR as above. IC50 values were obtained by the Hill’s regression curve using the software Prism 5. Experiments were always performed in triplicates. All results were confirmed in HepG2 cells by qPCR and by TCID50 in Vero cells.

In series [3] the target is T2, DENV-2 NS3 protease domain linked to the NS2B cofactor (Dengue virus type 2, UniProt P14340).
T2 construct: the NS3 protease domain linked to the NS2B cofactor was purified; made in house
T2 sequence (P14340 1476-1653): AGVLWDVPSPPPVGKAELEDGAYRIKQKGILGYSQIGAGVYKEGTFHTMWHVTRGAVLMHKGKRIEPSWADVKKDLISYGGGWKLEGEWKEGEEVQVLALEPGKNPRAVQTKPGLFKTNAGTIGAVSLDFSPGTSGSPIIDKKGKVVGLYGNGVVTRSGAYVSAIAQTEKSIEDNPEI
T2 sequence (P14340 1398-1437): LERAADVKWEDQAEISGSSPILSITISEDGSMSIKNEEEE
Kind of series: NS3 protease inhibition assay with NS2B cofactor. Type of series: biochemical. The note with it: in the presence of the NS2b cofactor, data not shown. The procedure: We also evaluated whether the compounds were able to suppress the proteolytic activity of DENV-2 NS3. Several studies have shown that the NS2B cofactor is required by the protease domain to form a proteolytic active domain [47, 48]. Therefore, the NS3 protease domain linked to the NS2B cofactor was purified and the inhibition assay was performed as described by Leung and co-workers.

Series [4] deals with DENV-2. Kind of series: Tissue Culture Infectious Dose (TCID50) confirmation of replication inhibition in Vero cells. Type of series: cell-based. The note with it: DENV-2 infected Vero cells. As to the method:
Viruses used in this work include a DENV-2 prototype 16681 and a Brazilian isolate (44/02 - from Fundação Oswaldo Cruz – RJ - Brazil). Virus stocks were generated by infecting Vero cells at an 80% confluence with a multiplicity of infection (m.o.i) of 0.1. Infected cells were incubated at 37 °C for 5-7 days and inspected every day until the cytopathic effect was clearly observed. Supernatants were then collected, centrifuged at 1,200 x g for 10 min. to clear cellular debris and stored at -70°C until use. The titter of viral stocks was measured by TCID(50)% using serial dilutions of 10^1 to 10^7 of the viral stocks inoculated into Vero cells. The viral titter was calculated according with Reed and Munch.
A dose response curve was also performed with the compounds that inhibited DENV replication by at least 30%. For this purpose, DENV-2-infected Vero cells were cultured with the selected compounds at concentrations varying from 100 to 0.4 μM and virus replication was measured by qPCR as above. […]
To analyze the impact of the selected compounds on DENV replication, cells were infected and cultured with the highest non-toxic concentration of each compound and virus replication was analyzed by qRT-PCR. […] The differences in the percentage of inhibition when viral replication was measured by qRT-PCR and TCID50 were probably due to the differences in the sensibility of these assays. […]

On to `Cc1ccc(C2CC(c3cccs3)C3=C(O2)c2ccccc2C(=O)C3=O)cc1` (stereo not drawn) [8c], for which the “Reduction of the NS3 ATPase activity” value in series [1] (50 µM compound, 600 nM NS3FL, 1 mM ATP) is given as “two-fold reduction”. Further, the “NS3 ATPase inhibition, statistical difference from control (unpaired t-test, p < 0.05)” value in series [1] (50 µM compound) is “statistically different”. Besides, the “Toxicity to the cell culture” value with Vero cells (concentration as low as 0.4 μM) is recorded as “highly toxic”.
Consider `O=C1C2=C(C(=O)c3ccccc31)C(c1ccc([N+](=O)[O-])cc1)C1=C(O2)C(=O)c2ccccc2C1=O` [10b], for which the “NS3 ATPase inhibition, statistical difference from control (unpaired t-test, p < 0.05)” value in series [1] (50 µM compound) was “statistically different”. The “% of Inhibition of DENV-2 Replication (qPCR)” value (from here on “% of Inhibition … (qPCR)”) in the series on DENV-2 [2] is 0%. The “Inhibition of DENV-2 replication (in words)” value in the series with DENV-2 [2] (Vero cells) is “did not inhibit DENV-2 replication”.
In turn, `Cc1ccc(C2CC(c3ccc([N+](=O)[O-])cc3)C3=C(O2)C(=O)c2ccccc2C3=O)cc1` (stereo not drawn) [9c] yielded a concentration for half-maximal inhibition (IC50) in series [1] (600 nM NS3FL, 1 mM ATP) of 80000 ± 12000 nM. Also, the “NS3 ATPase inhibition, statistical difference from control (unpaired t-test, p < 0.05)” value in series [1] (50 µM compound) is given as “statistically different”. The “% of Inhibition … (qPCR)” value in the series on DENV-2 [2] is given as 99.6%. In the series with DENV-2 [2] (DENV-2 replication in Vero cells), the “IC50 of 9c fold lower than that of compound 9b” value stood at 5.3 fold. Moreover, in the series on DENV-2 [2] (Vero cells), the “Concentration to inhibit 50% of DENV replication, fold lower than aglycon analogue of teicoplanin” value came out at 20 fold and the 50% inhibitory concentration (IC50) is 311 nM. Besides, the “Effect against the NS3 protease activity” value in series [3] is reported as “did not observe any effect”. In addition, the “Viability of uninfected host cell cultures” value in the series with Vero cells is reported as “did not reduce the viability”. In the series with DENV-2 [4] (100 μM), the “% of Inhibition of DENV-2 Replication (TCID50)” value is reported as 99.99%.
For `NC(=O)c1ncn([C@@H]2O[C@H](CO)[C@@H](O)[C@H]2O)n1` [Ribavirin, reference compound], the “% of Inhibition … (qPCR)” value in the series on DENV-2 [2] came to 78.00%.
For `Cc1ccc(C2CC(c3ccccc3)C3=C(O2)c2ccccc2C(=O)C3=O)cc1` (stereo not drawn) [8d], in the series on DENV-2 [2], the “% of Inhibition … (qPCR)” value was 0%. Further, the “Inhibition of DENV-2 replication (in words)” value in the series on DENV-2 [2] (Vero cells) is listed as “did not inhibit DENV-2 replication”.
In the case of `O=C1C2=C(C(=O)c3ccccc31)C(c1ccccc1)C1=C(O2)C(=O)c2ccccc2C1=O` [10a], in series [1] (50 µM compound), the “NS3 ATPase inhibition, statistical difference from control (unpaired t-test, p < 0.05)” value is listed as “statistically different”. The “% of Inhibition … (qPCR)” value with DENV-2 [2] came to 0%.
Turning to `Cc1ccc(C2CC(c3ccc([N+](=O)[O-])cc3)C3=C(O2)c2ccccc2C(=O)C3=O)cc1` (stereo not drawn) [8b], the “NS3 ATPase inhibition, statistical difference from control (unpaired t-test, p < 0.05)” value in series [1] (50 µM compound) is listed as “statistically different”.
As for `Cc1ccc(C2CC(c3ccc([N+](=O)[O-])cc3)C3=C(O2)C(=O)c2ccccc2C3=O)cc1` (stereo not drawn) [9b], the IC50 in series [1] (600 nM NS3FL, 1 mM ATP) is more than 100000 nM; with DENV-2 [2] (Vero cells), 1640 nM. Besides, the “% of Inhibition … (qPCR)” value in the series on DENV-2 [2] amounted to 99.0%. Also, the “Effect against the NS3 protease activity” value in series [3] is given as “did not observe any effect”. Also, the “Viability of uninfected host cell cultures” value with Vero cells is “did not reduce the viability”. This compound also gave an inhibition at 100 µM in the series on DENV-2 [4] (Dengue virus, DENV2, Vero) of 99.8%.

For the origin of these results see paper PMC3869945, “Synthetic 1,4-Pyran Naphthoquinones Are Potent Inhibitors of Dengue Virus Replication” (PLoS ONE, 2013).
